Laboratory results taken from paper PMC6718736, “Validation of in vitro methods for human cytochrome P450 enzyme induction: Outcome of a multi-laboratory study” (Toxicology in Vitro, 2019).
Like-named read-outs stand apart in the source and are kept apart here.

Key:
CYP1A2 = CYP1A2 enzyme induction assay in cryopreserved primary human hepatocytes (PHH); assay type: in vitro ADME; details: for Prediction in vivo inducer: Cmax/F2 >0.5 criterion; for Assigned classification CYP1A2: PHH;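 for Assigned classification CYP1A2: code 1 means positive inducer and 0 means non-inducer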
[1] = Solubility by nephelometry (EURL ECVAM); assay type: physicochemical
Excerpt: In addition to the visual inspection performed by the validation laboratories as described in the SOP, EURL ECVAM introduced nephelometry for systematic solubility determination of the 13 validation set chemicals. Nephelometry uses a laser beam and the principle of Tyndall effect light scatter to detect turbidity due to insolubility. The nephelometer method used formazin as reference item (1, 5, 10 and 20 nephelometric turbidity units (NTU)) to calculate the relative turbidity (RTU) of the validation set of chemicals. To the naked eye, 20 NTU is perceptible, while the nephelometer was sensitive to 5 NTU, with 1 NTU equivalent to background (solvent/medium blank).

CYP = CYP isoforms induced; ref Abadie et al. (2009), Richert et al. (2010), Preissner et al. (2010), Hoffmann et al. (2014); cited from earlier work
CYP2B6 [2] = details: cited from earlier work
CYP2B6 [3] = test: CYP2B6 enzyme induction assay in cryopreserved primary human hepatocytes (PHH); assay type: in vitro ADME; details: for Assigned classification CYP2B6: PHH;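 for Assigned classification CYP2B6: code 1 means positive inducer and 0 means non-inducer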
[4] = Solubility by visual inspection (DMSO stock solution and assay medium); assay type: physicochemical; details: assay medium
Experimental: The SOPs relied on visual inspection for solubility observation. […] The absence of precipitation in the medium was checked pre- and post-incubation (24 hours) by centrifugation of the sample and observation of any precipitation (pellet residue).

CYP3A4 [5] = test: CYP3A4 enzyme induction assay in cryopreserved primary human hepatocytes (PHH); details: for Assigned classification CYP3A4: PHH
[6] = cited from earlier work
CYP3A4 [7] = details: cited from earlier work
[8] = human in vivo, CYP named without remark = induced, ref references in the cell, Washington University database, Hoffmann et al. (2014), Pelkonen et al. (2008), Hukkanen et al. (2012)

- Prediction in vivo inducer (CYP1A2; CYP1A2, PHH): No
- Prediction in vivo inducer (CYP1A2; CYP1A2, PHH, listed as efavirenz): non-inducers
- Induction in vitro (CYP1A2; CYP1A2, PHH, positive in one donor in each of the three laboratories): No
- Assigned classification CYP1A2 (CYP1A2; Lab 1, batch 0 6 A): 0
- Assigned classification CYP1A2 (CYP1A2; Lab 1, batch 4 0 8): 0
- Assigned classification CYP1A2 (CYP1A2; Lab 1, batch 8 0 8): 0
- Assigned classification CYP1A2 (CYP1A2; Lab 2, batch 0 6 A): 0
- Assigned classification CYP1A2 (CYP1A2; Lab 2, batch 4 0 8): 0
- Assigned classification CYP1A2 (CYP1A2; Lab 2, batch 8 0 8): 0
- Assigned classification CYP1A2 (CYP1A2; Lab 3, batch 0 6 A): 0
- Assigned classification CYP1A2 (CYP1A2; Lab 3, batch 4 0 8): 0
- Assigned classification CYP1A2 (CYP1A2; Lab 3, batch 8 0 8): 0
- nephelometry finding in assay medium ([1]; 40 μg/ml, the two media): insoluble suspensions
- HepaRG medium stability ([1]; ECVAM nephelometry, HepaRG medium, ^2 = solubility limit): 20 µg/mL
- PHH medium stability ([1]; ECVAM nephelometry, ^2 = solubility limit): 40^2 μg/mL
- PHH medium stability ([1]; ECVAM nephelometry, ^2 = solubility limit, listed as efavirenz): 40 µg/mL
- F2 (CYP2B6 [3]; CYP2B6, PHH): 4.69 µM
- Induction in vitro (CYP2B6 [3]; CYP2B6, PHH): Yes
- Prediction in vivo inducer (CYP2B6 [3]; CYP2B6, PHH): Yes
- Prediction in vivo inducer (CYP2B6 [3]; CYP2B6, PHH, Cmax/F2 >0.5 criterion): positive
- Assigned classification CYP2B6 (CYP2B6 [3]; Lab 1, batch 0 6 A): 1
- Assigned classification CYP2B6 (CYP2B6 [3]; Lab 1, batch 4 0 8): 1
- Assigned classification CYP2B6 (CYP2B6 [3]; Lab 1, batch 8 0 8): 1
- Assigned classification CYP2B6 (CYP2B6 [3]; Lab 2, batch 0 6 A): 1
- Assigned classification CYP2B6 (CYP2B6 [3]; Lab 2, batch 4 0 8): 1
- Assigned classification CYP2B6 (CYP2B6 [3]; Lab 2, batch 8 0 8): 0
- Assigned classification CYP2B6 (CYP2B6 [3]; Lab 3, batch 0 6 A): 1
- Assigned classification CYP2B6 (CYP2B6 [3]; Lab 3, batch 4 0 8): 0
- Assigned classification CYP2B6 (CYP2B6 [3]; Lab 3, batch 8 0 8): 0
- HepaRG medium stability ([4]; Lab 1, visual observation): 20 µg/mL
- HepaRG medium stability ([4]; Lab 2, visual observation): 40 µg/mL
- HepaRG medium stability ([4]; Lab 3, visual observation): 40 µg/mL
- PHH medium stability ([4]; Lab 4, visual observation): 40 µg/mL
- PHH medium stability ([4]; Lab 5, visual observation): 40 µg/mL
- PHH medium stability ([4]; Lab 6, visual observation): 40 µg/mL
- F2 (CYP3A4 [5]; CYP3A4, PHH): 14.1 µM
- Induction in vitro (CYP3A4 [5]; CYP3A4, PHH): Yes
- Prediction in vivo inducer (CYP3A4 [5]; CYP3A4, PHH): Yes
- Assigned classification CYP3A4 (CYP3A4 [5]; Lab 1, batch 0 6 A): 1
- Assigned classification CYP3A4 (CYP3A4 [5]; Lab 1, batch 4 0 8): 1
- Assigned classification CYP3A4 (CYP3A4 [5]; Lab 1, batch 8 0 8): 1
- Assigned classification CYP3A4 (CYP3A4 [5]; Lab 2, batch 0 6 A): 1
- Assigned classification CYP3A4 (CYP3A4 [5]; Lab 2, batch 4 0 8): 1
- Assigned classification CYP3A4 (CYP3A4 [5]; Lab 2, batch 8 0 8): 1
- Assigned classification CYP3A4 (CYP3A4 [5]; Lab 3, batch 0 6 A): 1
- Assigned classification CYP3A4 (CYP3A4 [5]; Lab 3, batch 4 0 8): 1
- Assigned classification CYP3A4 (CYP3A4 [5]; Lab 3, batch 8 0 8): 1
SMILES: O=C1Nc2ccc(Cl)cc2[C@@](C#CC2CC2)(C(F)(F)F)O1 [Efavirenz]
- CYP induction in vitro (human hepatocytes) (CYP): CYP2B6, CYP3A4
- Induction in vivo (CYP2B6 [2]; CYP2B6, human in vivo reference classification): Yes
- CYP induction in vivo literature reference: CYP2B6 (CYP2B6 [2]; [8]): CYP2B6
- Cmax ([6]; human in vivo plasma concentration, normal dose): 9.1 to 12.6 µM
- Cmax ([6]; human in vivo, normal dose (Table 10)): 9.1 to 12.6 µM
- Induction in vivo (CYP3A4 [7]; CYP3A4, human in vivo reference classification (Table 12)): Yes
- CYP induction in vivo literature reference: CYP3A4 (CYP3A4 [7]; [8]): CYP3A4
